Assay results from patent US20110082130A1 (LIGAND PHARMACEUTICALS, INC., priority 2006, published 2011).

Target: T1, chimeric human H3 receptor (Homo sapiens, UniProt Q9Y5N1)
T1 construct: made in house; host or cells: Sf9 insect cells (baculovirus); P2 membrane preparation
Test: Chimeric human H3 receptor screening GTP binding assay (inhibition of histamine-stimulated GTP-gamma35S binding, Example 8)
Format: biochemical
Conditions: 4 μM of the compound, 1 μM histamine, "†" in Ki of Table II, read-out: percent inhibition of the signal obtained with 1 μM histamine
Procedure: This Example illustrates a representative screening assay for evaluating inhibition of histamine-stimulated GTP-gamma^35S binding. Such GTP binding activity can be used to identify H3 antagonists and inverse agonists. A compound analyzed in this assay is referred to herein as a “test compound,” and the initial identification of antagonists and inverse agonists is performed using a test compound concentration of 4 μM.
Four independent baculoviral stocks (one directing the expression of the chimeric human H3 receptor and three directing the expression of each of the three subunits of a heterotrimeric G-protein) are used to infect a culture of Sf9 cells as described above. P2 membranes are prepared as described above, and are resuspended by Dounce homogenization (tight pestle) in GTP binding assay buffer (50 mM Tris pH 7.4, 120 mM NaCl, 5 mM MgCl2, 2 mM EGTA, 1 mg/ml BSA, 0.2 mg/ml bacitracin, 0.02 mg/ml aprotinin, 0.01 mg/ml saponin, 10 μM GDP) and added to assay tubes at a concentration of 35 μg protein/reaction tube. Non-radiolabeled test compounds are added to separate reactions at a concentration of 4 μM along with 1 μM histamine (agonist). Reactions are initiated by the addition of […] GTP-gamma^35S with a final assay volume of 0.20 ml.
After a 60-min incubation at room temperature, reactions are terminated by vacuum filtration over GF/C filters (pre-soaked in 50 mM Tris pH 7.4, 120 mM NaCl plus 0.1% BSA) followed by washing with ice-cold buffer (50 mM Tris pH 7.4, 120 mM NaCl). The amount of receptor-bound (and thereby membrane-bound) GTP-gamma^35S is determined by measuring the bound radioactivity, preferably by liquid scintillation spectrometry of the washed filters. Non-specific binding is determined using 10 uM GTP-gammaS and typically represents less than 5 percent of total binding. After subtraction of non-specific binding, data is expressed as percent inhibition of 1 μM histamine signal.
Neutral antagonists are those test compounds that reduce the histamine-stimulated GTP binding activity towards, but not below, baseline levels. In contrast, in the absence of added histamine, inverse agonists reduce the GTP binding activity of the receptor-containing membranes below baseline. Any test compound that elevates GTP binding activity above baseline in the absence of added histamine in this assay is defined as having agonist activity.

T1 sequence (Q9Y5N1 with tags, fused parts or gaps): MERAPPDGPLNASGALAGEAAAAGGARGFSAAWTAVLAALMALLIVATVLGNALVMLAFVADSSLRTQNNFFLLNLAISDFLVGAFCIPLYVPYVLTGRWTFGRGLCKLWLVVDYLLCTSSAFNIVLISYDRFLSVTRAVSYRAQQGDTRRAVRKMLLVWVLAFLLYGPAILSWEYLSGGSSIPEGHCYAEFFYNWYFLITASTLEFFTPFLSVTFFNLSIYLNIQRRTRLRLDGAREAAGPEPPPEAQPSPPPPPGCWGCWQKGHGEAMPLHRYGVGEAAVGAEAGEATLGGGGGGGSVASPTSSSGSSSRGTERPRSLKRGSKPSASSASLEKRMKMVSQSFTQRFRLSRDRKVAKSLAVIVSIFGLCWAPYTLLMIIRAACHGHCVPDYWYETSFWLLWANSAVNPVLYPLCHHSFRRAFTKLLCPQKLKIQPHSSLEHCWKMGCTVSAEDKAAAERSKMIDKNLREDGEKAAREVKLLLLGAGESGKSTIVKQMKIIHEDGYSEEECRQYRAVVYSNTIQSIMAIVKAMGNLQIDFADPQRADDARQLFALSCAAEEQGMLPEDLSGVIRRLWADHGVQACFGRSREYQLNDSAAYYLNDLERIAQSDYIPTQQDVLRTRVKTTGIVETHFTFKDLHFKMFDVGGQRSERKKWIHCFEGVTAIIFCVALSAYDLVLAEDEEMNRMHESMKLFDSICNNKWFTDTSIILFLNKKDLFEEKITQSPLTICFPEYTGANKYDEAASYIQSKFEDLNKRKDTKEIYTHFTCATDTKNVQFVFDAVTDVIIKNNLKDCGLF

Inhibition at 4 µM, ≥ 90%:
Cc1ccc(-c2ccc3c(c2)CCN(CC(=O)N2CCN(C4CCCCC4)CC2)C3)c(F)c1 [Compound 422, 2-[2-(4-cyclohexylpiperazin-1-yl)-2-oxoethyl]-6-(2-fluoro-4-methylphenyl)-1,2,3,4-tetrahydroisoquinoline]
CC(C)c1ccc(-c2ccc3c(c2)CCN(CC(=O)N2CCN(C4CCC4)CC2)C3)cc1 [Compound 443, 2-[2-(4-cyclobutylpiperazin-1-yl)-2-oxoethyl]-6-(4-isopropylphenyl)-1,2,3,4-tetrahydroisoquinoline]
CCc1ccc(-c2ccc3c(c2)CCN(CC(=O)N2CCN(C(C)C)CC2)C3)cc1 [Compound 462, 6-(4-ethylphenyl)-2-[2-(4-isopropylpiperazin-1-yl)-2-oxoethyl]-1,2,3,4-tetrahydroisoquinoline]
Cc1cc(C)cc(-c2ccc3c(c2)CCN(CC(=O)N2CCN(C4CCC4)CC2)C3)c1 [Compound 455, 2-[2-(4-cyclobutylpiperazin-1-yl)-2-oxoethyl]-6-(3,5-dimethylphenyl)-1,2,3,4-tetrahydroisoquinoline]
Cc1cc(-c2ccc3c(c2)CCN(CC(=O)N2CCN(C4CCCC4)CC2)C3)ccc1F [Compound 430, 2-[2-(4-cyclopentylpiperazin-1-yl)-2-oxoethyl]-6-(4-fluoro-3-methylphenyl)-1,2,3,4-tetrahydroisoquinoline]
Cc1ccc(-c2ccc3c(c2)CCN(CC(=O)N2CCN(C(C)C)CC2)C3)cc1C [Compound 450, 6-(3,4-dimethylphenyl)-2-[2-(4-isopropylpiperazin-1-yl)-2-oxoethyl]-1,2,3,4-tetrahydroisoquinoline]
O=C(CN1CCc2cc(-c3ccc(OC(F)(F)F)cc3)ccc2C1)N1CCN(C2CCC2)CC1 [Compound 478, 2-[2-(4-cyclobutylpiperazin-1-yl)-2-oxoethyl]-6-[4-(trifluoromethoxy)phenyl]-1,2,3,4-tetrahydroisoquinoline]
CCc1cccc(-c2ccc3c(c2)CCN(CC(=O)N2CCN(C4CCCCC4)CC2)C3)c1 [Compound 469, 2-[2-(4-cyclohexylpiperazin-1-yl)-2-oxoethyl]-6-(3-ethylphenyl)-1,2,3,4-tetrahydroisoquinoline]
O=C(CN1CCc2cc(-c3cccc(Cl)c3)ccc2C1)N1CCN(C2CCCCC2)CC1 [Compound 403, 6-(3-chlorophenyl)-2-[2-(4-cyclohexylpiperazin-1-yl)-2-oxoethyl]-1,2,3,4-tetrahydroisoquinoline]
CC(C)(C)c1ccc(-c2ccc3c(c2)CCN(CC(=O)N2CCN(C4CCCCC4)CC2)C3)cc1 [Compound 473, 6-(4-tert-butylphenyl)-2-[2-(4-cyclohexylpiperazin-1-yl)-2-oxoethyl]-1,2,3,4-tetrahydroisoquinoline]

Same assay, conditions: Table II "Ki", symbol †, 4 μM of the compound, 1 μM histamine, read-out: percent inhibition of the signal obtained with 1 μM histamine

Inhibition at 4 µM, ≥ 90%:
COCC(C)Nc1ccc2c(n1)CCN(CC(=O)N1CCN(C3CCC3)CC1)C2 (stereo not drawn) [Compound 665, 6-[2-(4-cyclobutylpiperazin-1-yl)-2-oxoethyl]-N-(2-methoxy-1-methylethyl)-5,6,7,8-tetrahydro-1,6-naphthyridin-2-amine]
CSc1cccc(-c2ccc3c(c2)CCN(CC(=O)N2CCN(C4CCCC4)CC2)C3)c1 [Compound 495, 2-[2-(4-cyclopentylpiperazin-1-yl)-2-oxoethyl]-6-[3-(methylthio)phenyl]-1,2,3,4-tetrahydroisoquinoline]
COc1ccc(-c2ccc3c(c2)CCN(CC(=O)N2CCN(C4CCCC4)CC2)C3)c(C)c1 [Compound 549, 2-[2-(4-cyclopentylpiperazin-1-yl)-2-oxoethyl]-6-(4-methoxy-2-methylphenyl)-1,2,3,4-tetrahydroisoquinoline]
CSc1cccc(-c2ccc3c(c2)CCN(CC(=O)N2CCN(C4CCCCC4)CC2)C3)c1 [Compound 496, 2-[2-(4-cyclohexylpiperazin-1-yl)-2-oxoethyl]-6-[3-(methylthio)phenyl]-1,2,3,4-tetrahydroisoquinoline]
CCOc1cccc(-c2ccc3c(c2)CCN(CC(=O)N2CCN(C4CCCCC4)CC2)C3)c1 [Compound 484, 2-[2-(4-cyclohexylpiperazin-1-yl)-2-oxoethyl]-6-(3-ethoxyphenyl)-1,2,3,4-tetrahydroisoquinoline]
CSc1cccc(-c2ccc3c(c2)CCN(CC(=O)N2CCN(C4CCC4)CC2)C3)c1 [Compound 494, 2-[2-(4-cyclobutylpiperazin-1-yl)-2-oxoethyl]-6-[3-(methylthio)phenyl]-1,2,3,4-tetrahydroisoquinoline]
O=C(CN1CCc2cc(-c3ccc(F)cc3F)ccc2C1)N1CCN(C2CCCCC2)CC1 [Compound 588, 2-[2-(4-cyclohexylpiperazin-1-yl)-2-oxoethyl]-6-(2,4-difluorophenyl)-1,2,3,4-tetrahydroisoquinoline]
COc1ccc(C)cc1-c1ccc2c(c1)CCN(CC(=O)N1CCN(C3CCC3)CC1)C2 [Compound 572, 2-[2-(4-cyclobutylpiperazin-1-yl)-2-oxoethyl]-6-(2-methoxy-5-methylphenyl)-1,2,3,4-tetrahydroisoquinoline]
CC(C)N1CCN(C(=O)CN2CCc3cc(-c4cccc(OC(F)(F)F)c4)ccc3C2)CC1 [Compound 493, 2-[2-(4-isopropylpiperazin-1-yl)-2-oxoethyl]-6-[3-(trifluoromethoxy)phenyl]-1,2,3,4-tetrahydroisoquinoline]
CCN1CCN(C(=O)CN2CCc3cc(-c4cncnc4)ccc3C2)CC1 [Compound 603, 2-[2-(4-ethylpiperazin-1-yl)-2-oxoethyl]-6-pyrimidin-5-yl-1,2,3,4-tetrahydroisoquinoline]
O=C(CN1CCc2cc(-c3ccc(F)cc3F)ccc2C1)N1CCN(C2CCCC2)CC1 [Compound 587, 2-[2-(4-cyclopentylpiperazin-1-yl)-2-oxoethyl]-6-(2,4-difluorophenyl)-1,2,3,4-tetrahydroisoquinoline]
CC1CCCC1N1C[C@@H]2C[C@H]1CN2C(=O)CN1CCc2cc(-c3cncnc3)ccc2C1 (stereo in doubt) [Compound 615, 2-{2-[(1S,4S)-5-(2-methylcyclopentyl)-2,5-diazabicyclo[2.2.1]hept-2-yl]-2-oxoethyl}-6-pyrimidin-5-yl-1,2,3,4-tetrahydroisoquinoline]
COc1cc(F)c(-c2ccc3c(c2)CCN(CC(=O)N2CCN(C(C)C)CC2)C3)cc1F [Compound 508, 6-(2,5-difluoro-4-methoxyphenyl)-2-[2-(4-isopropylpiperazin-1-yl)-2-oxoethyl]-1,2,3,4-tetrahydroisoquinoline]
COc1ccc(C(C)C)cc1-c1ccc2c(c1)CCN(CC(=O)N1CCN(C3CCCC3)CC1)C2 [Compound 555, 2-[2-(4-cyclopentylpiperazin-1-yl)-2-oxoethyl]-6-(5-isopropyl-2-methoxyphenyl)-1,2,3,4-tetrahydroisoquinoline]
